Source: ChEMBL document CHEMBL3352057, “Novel fluorinated pyrrolo[1,2-a]pyrazine-2,6-dione derivatives: synthesis and anticonvulsant evaluation in animal models of epilepsy” (Bioorg Med Chem, 2014)
The source made the active and inactive calls. The calls are words filed in the database; no cut-off is given here.

Legend:
Rattus norvegicus [1] = assay: Anticonvulsant activity in Sprague-Dawley rat assessed as protection against maximal electroshock-induced seizures at 30 mg/kg, po measured after 1 hr; type: functional, organism-based; parameters: dose 30 mg/kg
Mus musculus [2] = assay: Anticonvulsant activity in albino CF1 mouse assessed as protection against maximal electroshock-induced seizures at 100 mg/kg, ip measured after 0.25 hr; type: functional, organism-based; parameters: dose 100 mg/kg
Rattus norvegicus [3] = assay: Neurotoxicity in MES Sprague-Dawley rat model at 30 mg/kg, po measured after 0.25 hr; type: toxicity, organism-based; parameters: dose 30 mg/kg, route oral; conditions: in vivo
Rattus norvegicus [4] = assay: Neurotoxicity in MES Sprague-Dawley rat model at 30 mg/kg, po measured after 2 hrs; type: toxicity, organism-based; parameters: dose 30 mg/kg, route oral; conditions: in vivo
Rattus norvegicus [5] = assay: Neurotoxicity in MES Sprague-Dawley rat model at 30 mg/kg, po measured after 0.5 hr; type: toxicity, organism-based; parameters: dose 30 mg/kg, route oral; conditions: in vivo
Rattus norvegicus [6] = assay: Anticonvulsant activity in Sprague-Dawley rat assessed as protection against maximal electroshock-induced seizures at 30 mg/kg, ip measured after 0.25 hr; type: functional, organism-based; parameters: dose 30 mg/kg
Rattus norvegicus [7] = assay: Anticonvulsant activity in Sprague-Dawley rat assessed as protection against maximal electroshock-induced seizures at 30 mg/kg, ip measured after 0.5 hr; type: functional, organism-based; parameters: dose 30 mg/kg
Mus musculus [8] = assay: Neurotoxicity in albino CF1 mouse at 100 mg/kg, ip measured after 0.5 hr; type: toxicity, organism-based; parameters: dose 100 mg/kg, route intraperitoneal; conditions: in vivo
Mus musculus [9] = assay: Neurotoxicity in albino CF1 mouse at 100 mg/kg, ip measured after 1 hr; type: toxicity, organism-based; parameters: dose 100 mg/kg, route intraperitoneal; conditions: in vivo
Rattus norvegicus [10] = assay: Anticonvulsant activity in Sprague-Dawley rat assessed as protection against maximal electroshock-induced seizures at 30 mg/kg, po measured after 2 hrs; type: functional, organism-based; parameters: dose 30 mg/kg
Mus musculus [11] = assay: Anticonvulsant activity in albino CF1 mouse assessed as protection against subcutaneous metrazol-induced seizures at 100 mg/kg, ip measured after 0.25 hr; type: functional, organism-based; parameters: dose 100 mg/kg
Rattus norvegicus [12] = assay: Neurotoxicity in MES Sprague-Dawley rat model at 30 mg/kg, po measured after 1 hr; type: toxicity, organism-based; parameters: dose 30 mg/kg, route oral; conditions: in vivo
Rattus norvegicus [13] = assay: Anticonvulsant activity in Sprague-Dawley rat assessed as protection against maximal electroshock-induced seizures at 30 mg/kg, ip measured after 1 hr; type: functional, organism-based; parameters: dose 30 mg/kg
Rattus norvegicus [14] = assay: Anticonvulsant activity in Sprague-Dawley rat assessed as protection against maximal electroshock-induced seizures at 30 mg/kg, ip measured after 2 hrs; type: functional, organism-based; parameters: dose 30 mg/kg
Mus musculus [15] = assay: Anticonvulsant activity in albino CF1 mouse assessed as protection against subcutaneous metrazol-induced seizures at 100 mg/kg, ip measured after 0.5 hr; type: functional, organism-based; parameters: dose 100 mg/kg
Mus musculus [16] = assay: Anticonvulsant activity in albino CF1 mouse assessed as protection against subcutaneous metrazol-induced seizures at 100 mg/kg, ip measured after 4 hrs; type: functional, organism-based; parameters: dose 100 mg/kg
Rattus norvegicus [17] = assay: Anticonvulsant activity in Sprague-Dawley rat assessed as protection against maximal electroshock-induced seizures at 30 mg/kg, po measured after 0.5 hr; type: functional, organism-based; parameters: dose 30 mg/kg
Mus musculus [18] = assay: Anticonvulsant activity in albino CF1 mouse assessed as protection against maximal electroshock-induced seizures at 100 mg/kg, ip measured after 4 hrs; type: functional, organism-based; parameters: dose 100 mg/kg
Rattus norvegicus [19] = assay: Neurotoxicity in MES Sprague-Dawley rat model at 30 mg/kg, ip measured after 1 hr; type: toxicity, organism-based; parameters: dose 30 mg/kg, route intraperitoneal; conditions: in vivo
Mus musculus [20] = assay: Neurotoxicity in albino CF1 mouse at 100 mg/kg, ip measured after 4 hrs; type: toxicity, organism-based; parameters: dose 100 mg/kg, route intraperitoneal; conditions: in vivo
Rattus norvegicus [21] = assay: Neurotoxicity in MES Sprague-Dawley rat model at 30 mg/kg, ip measured after 4 hrs; type: toxicity, organism-based; parameters: dose 30 mg/kg, route intraperitoneal; conditions: in vivo
Rattus norvegicus [22] = assay: Anticonvulsant activity in Sprague-Dawley rat assessed as protection against maximal electroshock-induced seizures at 30 mg/kg, ip measured after 4 hrs; type: functional, organism-based; parameters: dose 30 mg/kg
Rattus norvegicus [23] = assay: Neurotoxicity in MES Sprague-Dawley rat model at 30 mg/kg, ip measured after 2 hrs; type: toxicity, organism-based; parameters: dose 30 mg/kg, route intraperitoneal; conditions: in vivo
Rattus norvegicus [24] = assay: Neurotoxicity in MES Sprague-Dawley rat model at 30 mg/kg, po measured after 4 hrs; type: toxicity, organism-based; parameters: dose 30 mg/kg, route oral; conditions: in vivo
Mus musculus [25] = assay: Anticonvulsant activity in albino CF1 mouse assessed as protection against maximal electroshock-induced seizures at 100 mg/kg, ip measured after 1 hr; type: functional, organism-based; parameters: dose 100 mg/kg
Rattus norvegicus [26] = assay: Anticonvulsant activity in Sprague-Dawley rat assessed as protection against maximal electroshock-induced seizures at 30 mg/kg, po measured after 4 hrs; type: functional, organism-based; parameters: dose 30 mg/kg
Mus musculus [27] = assay: Neurotoxicity in albino CF1 mouse at 100 mg/kg, ip measured after 0.25 hr; type: toxicity, organism-based; parameters: dose 100 mg/kg, route intraperitoneal; conditions: in vivo
Mus musculus [28] = assay: Anticonvulsant activity in albino CF1 mouse assessed as protection against maximal electroshock-induced seizures at 100 mg/kg, ip measured after 0.5 hr; type: functional, organism-based; parameters: dose 100 mg/kg
Rattus norvegicus [29] = assay: Neurotoxicity in MES Sprague-Dawley rat model at 30 mg/kg, ip measured after 0.25 hr; type: toxicity, organism-based; parameters: dose 30 mg/kg, route intraperitoneal; conditions: in vivo
Rattus norvegicus [30] = assay: Anticonvulsant activity in Sprague-Dawley rat assessed as protection against maximal electroshock-induced seizures at 30 mg/kg, po measured after 0.25 hr; type: functional, organism-based; parameters: dose 30 mg/kg
Rattus norvegicus [31] = assay: Neurotoxicity in MES Sprague-Dawley rat model at 30 mg/kg, ip measured after 0.5 hr; type: toxicity, organism-based; parameters: dose 30 mg/kg, route intraperitoneal; conditions: in vivo
Mus musculus [32] = assay: Anticonvulsant activity in albino CF1 mouse assessed as protection against subcutaneous metrazol-induced seizures at 100 mg/kg, ip measured after 1 hr; type: functional, organism-based; parameters: dose 100 mg/kg
Mus musculus [33] = assay: Neurotoxicity in 32 mA current-induced seizure albino CF1 mouse model at 100 mg/kg, ip measured after 0.25 hr; type: toxicity, organism-based; parameters: dose 100 mg/kg, route intraperitoneal; conditions: in vivo
Mus musculus [34] = assay: Anticonvulsant activity in albino CF1 mouse assessed as protection against 32 mA current-induced seizures at 100 mg/kg, ip measured after 2 hrs; type: functional, organism-based; parameters: dose 100 mg/kg
Mus musculus [35] = assay: Anticonvulsant activity in albino CF1 mouse assessed as protection against 32 mA current-induced seizures at 100 mg/kg, ip measured after 0.25 hr; type: functional, organism-based; parameters: dose 100 mg/kg
Mus musculus [36] = assay: Neurotoxicity in 32 mA current-induced seizure albino CF1 mouse model at 100 mg/kg, ip measured after 1 hr; type: toxicity, organism-based; parameters: dose 100 mg/kg, route intraperitoneal; conditions: in vivo
Mus musculus [37] = assay: Neurotoxicity in 32 mA current-induced seizure albino CF1 mouse model at 100 mg/kg, ip measured after 2 hrs; type: toxicity, organism-based; parameters: dose 100 mg/kg, route intraperitoneal; conditions: in vivo
Mus musculus [38] = assay: Anticonvulsant activity in albino CF1 mouse assessed as protection against 32 mA current-induced seizures at 100 mg/kg, ip measured after 1 hr; type: functional, organism-based; parameters: dose 100 mg/kg
Mus musculus [39] = assay: Anticonvulsant activity in albino CF1 mouse assessed as protection against 32 mA current-induced seizures at 100 mg/kg, ip measured after 4 hrs; type: functional, organism-based; parameters: dose 100 mg/kg
Mus musculus [40] = assay: Neurotoxicity in 32 mA current-induced seizure albino CF1 mouse model at 100 mg/kg, ip measured after 4 hrs; type: toxicity, organism-based; parameters: dose 100 mg/kg, route intraperitoneal; conditions: in vivo
Mus musculus [41] = assay: Anticonvulsant activity in albino CF1 mouse assessed as protection against 32 mA current-induced seizures at 100 mg/kg, ip measured after 0.5 hr; type: functional, organism-based; parameters: dose 100 mg/kg
Mus musculus [42] = assay: Neurotoxicity in 32 mA current-induced seizure albino CF1 mouse model at 100 mg/kg, ip measured after 0.5 hr; type: toxicity, organism-based; parameters: dose 100 mg/kg, route intraperitoneal; conditions: in vivo

O=C1NC(=O)[C@@H]2CCCN2[C@H]1c1ccccc1F
Activity (Rattus norvegicus [1]): inactive | Activity (Mus musculus [2]): inactive | Activity (Rattus norvegicus [3]): Non-toxic | Activity (Rattus norvegicus [4]): Non-toxic | Activity (Rattus norvegicus [5]): Non-toxic | Activity (Rattus norvegicus [6]): inactive | Activity (Rattus norvegicus [7]): inactive | Activity (Mus musculus [8]): Non-toxic | Activity (Mus musculus [9]): Non-toxic | Activity (Rattus norvegicus [10]): inactive | Activity (Mus musculus [11]): Active | Activity (Rattus norvegicus [12]): Non-toxic | Activity (Rattus norvegicus [13]): inactive | Activity (Rattus norvegicus [14]): inactive | Activity (Mus musculus [15]): inactive | Activity (Mus musculus [16]): inactive | Activity (Rattus norvegicus [17]): inactive | Activity (Mus musculus [18]): inactive | Activity (Rattus norvegicus [19]): Non-toxic | Activity (Mus musculus [20]): Non-toxic | Activity (Rattus norvegicus [21]): Non-toxic | Activity (Rattus norvegicus [22]): inactive | Activity (Rattus norvegicus [23]): Non-toxic | Activity (Rattus norvegicus [24]): Non-toxic | Activity (Mus musculus [25]): inactive | Activity (Rattus norvegicus [26]): inactive | Activity (Mus musculus [27]): Toxic | Activity (Mus musculus [28]): Active | Activity (Rattus norvegicus [29]): Non-toxic | Activity (Rattus norvegicus [30]): inactive | Activity (Rattus norvegicus [31]): Non-toxic | Activity (Mus musculus [32]): inactive

O=C1NC(=O)[C@@H](c2cccc(C(F)(F)F)c2)N2CCCC[C@H]12
Activity (Rattus norvegicus [1]): inactive | Activity (Mus musculus [2]): inactive | Activity (Rattus norvegicus [3]): Non-toxic | Activity (Rattus norvegicus [4]): Non-toxic | Activity (Rattus norvegicus [5]): Non-toxic | Activity (Rattus norvegicus [6]): inactive | Activity (Mus musculus [33]): Non-toxic | Activity (Rattus norvegicus [7]): inactive | Activity (Mus musculus [8]): Non-toxic | Activity (Mus musculus [9]): Non-toxic | Activity (Mus musculus [34]): inactive | Activity (Rattus norvegicus [10]): inactive | Activity (Mus musculus [11]): inactive | Activity (Rattus norvegicus [12]): Non-toxic | Activity (Rattus norvegicus [13]): inactive | Activity (Mus musculus [35]): Active | Activity (Mus musculus [36]): Non-toxic | Activity (Rattus norvegicus [14]): inactive | Activity (Mus musculus [15]): inactive | Activity (Mus musculus [16]): inactive | Activity (Rattus norvegicus [17]): inactive | Activity (Mus musculus [37]): Non-toxic | Activity (Mus musculus [18]): inactive | Activity (Mus musculus [38]): Active | Activity (Rattus norvegicus [19]): Non-toxic | Activity (Mus musculus [20]): Non-toxic | Activity (Rattus norvegicus [21]): Non-toxic | Activity (Rattus norvegicus [22]): inactive | Activity (Mus musculus [39]): inactive | Activity (Rattus norvegicus [23]): Non-toxic | Activity (Rattus norvegicus [24]): Non-toxic | Activity (Mus musculus [25]): Active | Activity (Rattus norvegicus [26]): inactive | Activity (Mus musculus [27]): Non-toxic | Activity (Mus musculus [40]): Non-toxic | Activity (Mus musculus [28]): inactive | Activity (Rattus norvegicus [29]): Non-toxic | Activity (Rattus norvegicus [30]): inactive | Activity (Mus musculus [41]): Active | Activity (Rattus norvegicus [31]): Non-toxic | Activity (Mus musculus [42]): Non-toxic | Activity (Mus musculus [32]): inactive
